From publication PMC11450741, “Functional Characterization of an Arylsulfonamide-Based Small-Molecule Inhibitor of the NLRP3 Inflammasome” (ACS Chemical Neuroscience, 2024)

Target: T1, NLRP3 (Mus musculus, UniProt Q8R4B8)
T1 construct: full length recombinant NLRP3 protein (N-Flag, expressed in Expi293F cells)
Assay: intrinsic fluorescence spectroscopy titration (ex […]/em […] nm); supported by Western blot thermal shift ([…] to […] °C)
Assay type: binding

T1 sequence (Q8R4B8 whole entry): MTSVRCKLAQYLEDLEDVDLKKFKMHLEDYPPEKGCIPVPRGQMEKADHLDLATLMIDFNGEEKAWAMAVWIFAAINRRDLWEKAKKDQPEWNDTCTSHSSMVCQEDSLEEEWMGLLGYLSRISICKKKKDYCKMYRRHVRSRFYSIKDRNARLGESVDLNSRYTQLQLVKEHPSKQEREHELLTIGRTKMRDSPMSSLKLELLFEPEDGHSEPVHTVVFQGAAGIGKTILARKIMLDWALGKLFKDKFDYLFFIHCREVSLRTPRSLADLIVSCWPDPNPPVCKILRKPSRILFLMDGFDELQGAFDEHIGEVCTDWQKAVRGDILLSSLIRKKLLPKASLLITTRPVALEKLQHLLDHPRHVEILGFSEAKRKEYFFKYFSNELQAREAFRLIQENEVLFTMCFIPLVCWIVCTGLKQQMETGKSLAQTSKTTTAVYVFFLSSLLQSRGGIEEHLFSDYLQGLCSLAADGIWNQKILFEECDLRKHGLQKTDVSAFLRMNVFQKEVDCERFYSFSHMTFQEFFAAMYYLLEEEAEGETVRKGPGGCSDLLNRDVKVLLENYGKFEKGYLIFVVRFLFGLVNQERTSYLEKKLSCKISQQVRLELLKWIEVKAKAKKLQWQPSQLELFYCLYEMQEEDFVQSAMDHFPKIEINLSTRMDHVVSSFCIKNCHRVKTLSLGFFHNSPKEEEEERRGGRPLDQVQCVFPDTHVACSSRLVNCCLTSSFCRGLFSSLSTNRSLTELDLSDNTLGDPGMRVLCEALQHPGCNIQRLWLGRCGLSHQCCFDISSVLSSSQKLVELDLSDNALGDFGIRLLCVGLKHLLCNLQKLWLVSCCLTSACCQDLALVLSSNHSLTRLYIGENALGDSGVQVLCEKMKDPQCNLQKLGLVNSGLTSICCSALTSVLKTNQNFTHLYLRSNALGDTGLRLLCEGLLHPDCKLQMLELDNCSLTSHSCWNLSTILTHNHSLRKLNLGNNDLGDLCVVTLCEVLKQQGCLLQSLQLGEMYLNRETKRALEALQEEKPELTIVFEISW

Question: For `CCCOc1ccc(Cl)cc1CN(CCc1ccc(S(=O)(=O)N2CCOCC2)cc1)C(=O)Cc1ccsc1` [YM-I-26], which Kd is on record?
Answer: The Kd was 560 ± 30.3 nM.
